This is an account of results in US8546381B2, “Bridged heterocyclic compounds and methods of use” (Medivation Technologies, Inc., priority 2008, dated 2013).

Experiment [1] deals with T1, human recombinant histamine H2 receptor (Homo sapiens, UniProt P25021).
T1 construct: expressed in transfected cells; host or cells: CHO-K1 cells
The experiment in a line: Histamine H2 radioligand binding ([125I]Aminopotentidine). Conditions: compound at 1 μM; inhibition of specific [125I]Aminopotentidine binding; read-out: Histamine Binding (1 μM) H2, Percentage Inhibition. Here is the method: To evaluate in radioligand binding assays the activity of compounds of the invention, human recombinant histamine H2 receptor expressed in Chinese hamster ovary (CHO) K1 cells (Ruat, M., Proc. Natl. Acad. Sci. USA. 87(5):1658, 1990) in a 50 mM Phosphate buffer, pH 7.4 was used. Compounds of the invention were incubated with 0.1 nM [^125I]Aminopotentidine for 120 minutes at 25° C. Non-specific binding was estimated in the presence of 3 μM Tiotidine. Receptor proteins were filtered and washed, the filters were then counted to determine [^125I]Aminopotentidine specifically bound. Compounds were screened at 1 μM or lower, using 1% DMSO as vehicle. Biochemical assay results are presented as the percent inhibition of specific binding in Table 2.

Experiment [2] has as its target T2, human recombinant histamine H1 receptor (Homo sapiens, UniProt P35367).
T2 construct: expressed in transfected cells; host or cells: CHO cells
The experiment in a line: Histamine H1 radioligand binding ([3H]Pyrilamine). The conditions noted are these: compound at 1 μM; inhibition of specific [3H]Pyrilamine binding; read-out: Histamine Binding (1 μM) H1, Percentage Inhibition. Here is the method:
To evaluate in radioligand binding assays the activity of compounds of the invention, human recombinant histamine H1 receptor expressed in Chinese hamster ovary (CHO) cells (De Backer, M. D. et al., Biochem. Biophys. Res. Comm. 197(3):1601, 1993) in a modified Tris-HCl buffer (50 mM Tris-HCl, pH 7.4, 2 mM MgCl2, 100 mM NaCl, 250 mM Sucrose) was used. Compounds of the invention were incubated with 1.2 nM [^3H]Pyrilamine for 180 minutes at 25° C. Non-specific binding was estimated in the presence of 1 μM pyrilamine. Receptor proteins were filtered and washed, the filters were then counted to determine [^3H]Pyrilamine specifically bound. Compounds were screened at 1 μM or lower, using 1% DMSO as vehicle. Biochemical assay results are presented as the percent inhibition of specific binding in Table 2.

Experiment [3] addresses T3, human recombinant serotonin (5-Hydroxytryptamine) 5-HT7 receptor (Homo sapiens, UniProt P34969).
T3 construct: expressed in transfected cells; host or cells: CHO cells
Briefly: Serotonin 5-HT7 radioligand binding ([3H]LSD). The conditions noted are these: read-out: Serotonin 5-HT7, inhibition of ligand binding (1 μM). The method, then: To evaluate in radioligand binding assays the activity of compounds of the invention, human recombinant serotonin (5-Hydroxytryptamine) 5-HT7 receptor expressed in Chinese hamster ovary (CHO) cells (Roth, B. L. et al., J. Pharmacol. Exp. Ther. 268:1403, 1994; Shen, Y. et al., J. Biol. Chem. 268:18200, 1993) in a modified Tris-HCl buffer (50 mM Tris-HCl, pH 7.4, 10 mM MgCl2, 0.5 mM EDTA) was used. Compounds of invention were incubated with 5.5 nM [^3H] Lysergic acid diethylamide (LSD) for 2 hours at 25° C. Non-specific binding was estimated in the presence of 10 μM Serotonin (5-HT). Receptor proteins were filtered and washed, the filters were then counted to determine [^3H]LSD specifically bound. Compounds were screened at 1 μM or lower, using 1% DMSO as vehicle. Biochemical assay results are presented as the percent inhibition of specific binding in Table 4.

Experiment [4] has as its target T4, human recombinant serotonin (5-Hydroxytryptamine) 5-HT6 receptor (Homo sapiens, UniProt P50406).
T4 construct: expressed in transfected cells; host or cells: human HeLa cells
The experiment in a line: Serotonin 5-HT6 radioligand binding ([3H]LSD). Conditions: read-out: Serotonin 5-HT6, inhibition of ligand binding (1 μM). The method, then: To evaluate in radioligand binding assays the activity of compounds of the invention, human recombinant serotonin (5-Hydroxytryptamine) 5-HT6 receptor expressed in human HeLa cells (Monsma, F. J. Jr. et al., Mol. Pharmacol. 43:320, 1993) in a modified Tris-HCl buffer (50 mM Tris-HCl, pH 7.4, 150 mM NaCl, 2 mM Ascorbic Acid, 0.001% BSA) was used. Compounds of the invention were incubated with 1.5 nM [3H]Lysergic acid diethylamide (LSD) for 120 minutes at 37° C. Non-specific binding was estimated in the presence of 5 μM Serotonin (5-HT). Receptor proteins were filtered and washed, the filters were then counted to determine [3H]LSD specifically bound. Compounds were screened at 1 μM or lower, using 1% DMSO as vehicle. Biochemical assay results are presented as the percent inhibition of specific binding in Table 4.

Experiment [5] has as its target T5, human recombinant dopamine D2L receptor (Homo sapiens, UniProt P14416).
T5 construct: expressed in transfected cells; host or cells: CHO cells
The experiment in a line: Dopamine D2L radioligand binding ([3H]Spiperone). Conditions: read-out: Dopamine (1 μM) D2L, inhibition of ligand binding. Here is the method: To evaluate in radioligand binding assays the activity of compounds of the invention, human recombinant dopamine D2L receptor expressed in Chinese hamster ovary (CHO) cells (Grandy, D. K. et al. Proc. Natl. Acad. Sci. USA. 86:9762, 1989; Hayes, G. et al., Mol. Endocrinol. 6:920, 1992) in a modified Tris-HCl buffer (50 mM Tris-HCl, pH 7.4, 1.4 mM Ascorbic Acid, 0.001% BSA, 150 mM NaCl) was used. Compounds of the invention were incubated with 0.16 nM [^3H]Spiperone for 120 minutes at 25° C. Non-specific binding was estimated in the presence of 10 μM Haloperidol. Receptor proteins were filtered and washed, the filters were then counted to determine [^3H]Spiperone specifically bound. Compounds were screened at 1 μM or lower, using 1% DMSO as vehicle. Biochemical assay results are presented as the percent inhibition of specific binding in Table 3.

The target in experiment [6] is T6, human recombinant serotonin (5-Hydroxytryptamine) 5-HT2C receptor (Homo sapiens, UniProt P28335).
T6 construct: expressed in transfected cells; host or cells: CHO-K1 cells
T6 sequence (P28335 33-458): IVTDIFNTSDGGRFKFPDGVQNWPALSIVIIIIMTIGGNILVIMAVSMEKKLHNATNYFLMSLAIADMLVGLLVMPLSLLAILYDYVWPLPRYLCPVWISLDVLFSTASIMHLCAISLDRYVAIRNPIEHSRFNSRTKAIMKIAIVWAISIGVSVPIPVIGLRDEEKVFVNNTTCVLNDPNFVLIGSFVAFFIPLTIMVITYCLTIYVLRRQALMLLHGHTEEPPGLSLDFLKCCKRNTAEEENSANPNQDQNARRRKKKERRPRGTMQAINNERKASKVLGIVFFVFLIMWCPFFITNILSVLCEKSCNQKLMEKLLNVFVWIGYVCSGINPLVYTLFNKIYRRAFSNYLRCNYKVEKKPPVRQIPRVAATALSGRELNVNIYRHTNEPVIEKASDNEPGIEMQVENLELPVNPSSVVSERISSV
The experiment in a line: Serotonin 5-HT2C radioligand binding ([3H]Mesulergine). Conditions: read-out: Serotonin 5-HT2C, inhibition of ligand binding (1 μM). The method, then: To evaluate in radioligand binding assays the activity of compounds of the invention, human recombinant serotonin (5-Hydroxytryptamine) 5-HT2C receptor expressed in Chinese hamster ovary (CHO-K1) cells (Wolf, W. A. and Schutz, J. S., J. Neurochem. 69:1449, 1997) in a modified Tris-HCl buffer (50 mM Tris-HCl, pH 7.4, 0.1% Ascorbic Acid, 10 μM Pargyline) was used. Compounds of the invention were incubated with 1 nM [^3H]Mesulergine for 60 minutes at 25° C. Non-specific binding was estimated in the presence of 1 μM Mianserin. Receptor proteins were filtered and washed, the filters were then counted to determine [^3H]Mesulergine specifically bound. Compounds were screened at 1 μM or lower, using 1% DMSO as vehicle. Biochemical assay results are presented as the percent inhibition of specific binding in Table 4.

The target in experiment [7] is T7, human recombinant serotonin (5-Hydroxytryptamine) 5-HT2A receptor (Homo sapiens, UniProt P28223).
T7 construct: expressed in transfected cells; host or cells: CHO-K1 cells
T7 sequence (P28223 whole entry): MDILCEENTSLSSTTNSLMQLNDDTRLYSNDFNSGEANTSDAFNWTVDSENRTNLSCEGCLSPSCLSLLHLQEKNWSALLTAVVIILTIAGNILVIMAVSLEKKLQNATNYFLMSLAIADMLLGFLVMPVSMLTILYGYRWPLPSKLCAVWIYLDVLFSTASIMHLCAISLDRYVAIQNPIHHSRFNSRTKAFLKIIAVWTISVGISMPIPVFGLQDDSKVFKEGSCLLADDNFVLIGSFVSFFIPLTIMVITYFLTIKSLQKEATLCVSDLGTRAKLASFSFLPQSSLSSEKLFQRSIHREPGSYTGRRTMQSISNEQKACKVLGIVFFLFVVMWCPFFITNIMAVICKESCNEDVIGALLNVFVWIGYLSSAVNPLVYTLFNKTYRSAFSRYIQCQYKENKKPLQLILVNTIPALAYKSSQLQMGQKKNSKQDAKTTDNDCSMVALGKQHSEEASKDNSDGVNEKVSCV
Briefly: Serotonin 5-HT2A radioligand binding ([3H]Ketanserin). Conditions: read-out: Serotonin 5-HT2A, inhibition of ligand binding (1 μM). Here is the method: To evaluate in radioligand binding assays the activity of compounds of the invention, human recombinant serotonin (5-Hydroxytryptamine) 5-HT2A receptor expressed in Chinese hamster ovary (CHO-K1) cells (Bonhaus, D. W. et al. Br. J. Pharmacol. 115:622, 1995; Saucier, C. and Albert, P. R., J. Neurochem. 68:1998, 1997) in a 50 mM Tris-HCl buffer, pH 7.4, was used. Compounds of the invention were incubated with 0.5 nM [^3H]Ketanserin for 60 minutes at 25° C. Non-specific binding was estimated in the presence of 1 μM Mianserin. Receptor proteins were filtered and washed, the filters were then counted to determine [^3H]Ketanserin specifically bound. Compounds were screened at 1 μM or lower, using 1% DMSO as vehicle. Biochemical assay results are presented as the percent inhibition of specific binding in Table 4.

T4 sequence (P50406 whole entry): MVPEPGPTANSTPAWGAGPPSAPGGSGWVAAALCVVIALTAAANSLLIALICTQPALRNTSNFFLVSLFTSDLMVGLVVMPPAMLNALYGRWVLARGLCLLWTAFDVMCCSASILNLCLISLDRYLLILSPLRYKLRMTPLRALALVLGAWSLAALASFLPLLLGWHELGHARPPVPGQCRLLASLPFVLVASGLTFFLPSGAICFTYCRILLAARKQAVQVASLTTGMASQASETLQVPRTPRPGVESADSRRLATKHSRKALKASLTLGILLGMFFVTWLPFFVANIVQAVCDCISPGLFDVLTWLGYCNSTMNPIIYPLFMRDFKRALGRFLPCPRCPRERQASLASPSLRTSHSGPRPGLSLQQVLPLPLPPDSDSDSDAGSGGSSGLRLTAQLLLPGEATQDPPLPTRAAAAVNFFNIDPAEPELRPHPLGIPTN
T5 sequence (P14416 whole entry): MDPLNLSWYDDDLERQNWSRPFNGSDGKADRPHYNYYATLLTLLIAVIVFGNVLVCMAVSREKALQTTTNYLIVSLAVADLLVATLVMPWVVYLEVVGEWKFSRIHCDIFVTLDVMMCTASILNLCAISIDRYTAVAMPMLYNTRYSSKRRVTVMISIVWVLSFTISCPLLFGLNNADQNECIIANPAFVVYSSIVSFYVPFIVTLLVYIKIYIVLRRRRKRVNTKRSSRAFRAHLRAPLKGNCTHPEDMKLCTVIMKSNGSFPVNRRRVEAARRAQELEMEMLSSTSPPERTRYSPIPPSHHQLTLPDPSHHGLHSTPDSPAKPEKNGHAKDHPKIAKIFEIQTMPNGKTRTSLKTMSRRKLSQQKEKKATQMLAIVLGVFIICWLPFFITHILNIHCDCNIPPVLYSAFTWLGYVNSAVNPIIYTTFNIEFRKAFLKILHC
T2 sequence (P35367 whole entry): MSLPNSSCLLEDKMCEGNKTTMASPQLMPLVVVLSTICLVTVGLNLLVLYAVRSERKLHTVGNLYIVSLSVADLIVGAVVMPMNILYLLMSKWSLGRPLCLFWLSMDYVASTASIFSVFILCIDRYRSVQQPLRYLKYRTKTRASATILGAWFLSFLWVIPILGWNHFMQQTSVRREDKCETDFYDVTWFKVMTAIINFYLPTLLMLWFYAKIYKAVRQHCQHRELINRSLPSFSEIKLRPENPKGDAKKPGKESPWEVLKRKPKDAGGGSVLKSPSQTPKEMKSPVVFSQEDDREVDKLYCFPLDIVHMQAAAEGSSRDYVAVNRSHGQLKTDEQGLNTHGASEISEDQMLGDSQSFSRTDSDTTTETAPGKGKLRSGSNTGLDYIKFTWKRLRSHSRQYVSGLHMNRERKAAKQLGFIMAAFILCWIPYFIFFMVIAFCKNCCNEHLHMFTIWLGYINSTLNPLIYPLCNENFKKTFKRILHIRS
T3 sequence (P34969 whole entry): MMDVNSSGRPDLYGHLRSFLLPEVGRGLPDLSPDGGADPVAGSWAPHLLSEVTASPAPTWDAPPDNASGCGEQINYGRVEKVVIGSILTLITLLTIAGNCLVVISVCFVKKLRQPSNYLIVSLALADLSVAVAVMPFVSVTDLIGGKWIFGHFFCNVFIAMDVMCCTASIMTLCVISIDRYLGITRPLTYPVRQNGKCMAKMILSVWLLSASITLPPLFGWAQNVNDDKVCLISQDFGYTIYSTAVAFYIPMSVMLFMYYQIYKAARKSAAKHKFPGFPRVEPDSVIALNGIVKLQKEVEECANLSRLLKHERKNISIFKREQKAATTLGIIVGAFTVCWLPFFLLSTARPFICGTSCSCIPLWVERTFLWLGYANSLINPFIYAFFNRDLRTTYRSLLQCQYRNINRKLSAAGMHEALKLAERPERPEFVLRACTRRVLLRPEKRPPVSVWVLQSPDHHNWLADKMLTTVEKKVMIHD
T1 sequence (P25021 whole entry): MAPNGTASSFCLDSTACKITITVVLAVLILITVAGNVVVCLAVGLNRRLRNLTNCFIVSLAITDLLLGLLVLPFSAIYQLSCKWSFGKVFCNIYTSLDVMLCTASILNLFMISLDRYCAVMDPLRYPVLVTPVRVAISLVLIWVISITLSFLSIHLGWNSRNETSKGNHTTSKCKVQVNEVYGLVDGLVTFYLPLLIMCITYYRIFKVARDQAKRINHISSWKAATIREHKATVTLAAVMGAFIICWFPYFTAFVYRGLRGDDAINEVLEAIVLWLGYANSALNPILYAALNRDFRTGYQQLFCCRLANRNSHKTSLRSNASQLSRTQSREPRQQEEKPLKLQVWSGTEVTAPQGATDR

Turning to `C/C(=C\n1c2c(c3cc(Cl)ccc31)C1CCC(C2)N1C)c1cccnc1` (centres unmarked) [Compound 128], the inhibition at 1 µM in experiment [1] amounted to 21%; in experiment [2] it was 15%; in experiment [3], 66%; in experiment [4], 62%; in experiment [5] it was 21%; in experiment [6], 77%. The inhibition at 1 µM in experiment [7] came to 91%.

Regarding `C/C(=C\n1c2c(c3cc(C)ccc31)C1CCC(C2)N1C)c1cccnc1` (centres unmarked) [Compound 129], the inhibition at 1 µM was 26% in experiment [1]; 5% in experiment [2]; 80% in experiment [3]; 19% in experiment [4]; 8% in experiment [5]; 72% in experiment [6]. Moreover, in experiment [7], the inhibition at 1 µM stood at 88%.

Regarding `C/C(=C\n1c2c(c3cc(Cl)ccc31)C1CCC(C2)N1C)c1ccc(Cl)c(Cl)c1` (centres unmarked) [Compound 132], the inhibition at 1 µM in experiment [1] was determined as 99%; in experiment [2], 87%; in experiment [3], 81%; in experiment [4], 31%; in experiment [6], 95%; in experiment [7] it was 100%.

In the case of `COc1ccc(C#Cn2c3c(c4cc(Cl)ccc42)C2CCC(C3)N2C)cc1F` (centres unmarked) [Compound 154], the inhibition at 1 µM in experiment [1] was determined as 87%; in experiment [2], 30%; in experiment [3], 21%; in experiment [4], 31%; in experiment [5], 13%; in experiment [6], 97%. For the same molecule, the inhibition at 1 µM in experiment [7] stood at 96%.

With `COc1ccc(C#Cn2c3c(c4cc(C)ccc42)C2CCC(C3)N2C)cc1F` (centres unmarked) [Compound 155], the inhibition at 1 µM amounted to 84% in experiment [1]; 10% in experiment [2]; 24% in experiment [3]; 49% in experiment [4]; 10% in experiment [5]; 99% in experiment [6]. In addition, the inhibition at 1 µM in experiment [7] is 100%.

For `C/C(=C\n1c2c(c3cc(C)ccc31)C1CCC(C2)N1C)c1ccccc1F` (centres unmarked) [Compound 164], the inhibition at 1 µM in experiment [1] came out at 41%; in experiment [2], 65%; in experiment [3], 96%; in experiment [4] it was 57%; in experiment [5], 12%; in experiment [6], 93%. Also, the inhibition at 1 µM in experiment [7] was determined as 94%.
